Test results reported in PubChem BioAssay (NCI).
Several values for one entry are separate records, joined by “and”; a condition that tells them apart may be missing. Identical values can stand only once.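 How tested: cells in 96-well plates exposed to compound for 48 hours at five concentrations. GI50 = concentration required for 50% inhibition of growth. TGI is the concentration that stops growth completely.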

Experiments:
Assay in all cases: NCI anticancer screen, dose series, 48 h
[1] = test system: A498 renal
[2] = test system: HOP-92 NSCLC
[3] = test system: K-562 leukemia
[4] = test system: LOX IMVI melanoma
[5] = test system: OVCAR-4 ovarian
[6] = test system: SF-268 CNS
[7] = test system: SK-MEL-2 melanoma
[8] = test system: SN12C renal

SMILES | GI50 [1] | TGI [1] | GI50 [2] | TGI [2] | GI50 [3] | TGI [3] | GI50 [4] | TGI [4] | GI50 [5] | TGI [5] | GI50 [6] | TGI [6] | GI50 [7] | TGI [7] | GI50 [8] | TGI [8]
Clc1ccc(-c2nc(-c3c[nH]c4ncccc34)cs2)cc1 | > 100 µM | > 100 µM | 0.0277 µM | > 100 µM | > 100 µM | > 100 µM | > 100 µM | > 100 µM | 65.8 µM | > 100 µM | > 100 µM | > 100 µM | > 100 µM | > 100 µM | > 100 µM | > 100 µM
O=C(/C=C/c1ccccc1Cl)c1ccc(O)cc1 | 8.46 µM | 21.6 µM | 6.75 µM | 23.7 µM | 3.12 µM | > 100 µM | 3.09 µM | 10.3 µM | 10.6 µM | 24.9 µM | 8.91 µM | 25.3 µM | 15 µM | 31.2 µM | 8.51 µM | 33.1 µM
O=S(=O)(c1ccc2c(c1)C(=NO)c1cc(S(=O)(=O)N3CCCCC3)ccc1-2)N1CCCCC1 | > 1 µM and 8.88 µM | > 1 µM and 37.5 µM | > 1 µM and 0.22 µM | > 1 µM and 0.524 µM | 0.211 µM and 0.216 µM | 0.452 µM and 0.785 µM |  |  | 0.195 µM and 0.0636 µM | 0.426 µM and 0.143 µM | 0.215 µM and 0.12 µM | 0.44 µM and 0.318 µM | > 1 µM and 0.176 µM | > 1 µM and 0.331 µM | 0.208 µM and 0.144 µM | 0.438 µM and 0.28 µM
C[C@@]12CCC[C@@](C)(C(=O)O)C1CC[C@]13C=C(CO)[C@](O)(CCC12)C3 (stereo partly specified) | > 100 µM | > 100 µM | > 100 µM | > 100 µM | > 100 µM | > 100 µM | > 100 µM | > 100 µM | > 100 µM | > 100 µM | > 100 µM | > 100 µM | > 100 µM | > 100 µM | > 100 µM | > 100 µM
O=C(O)c1ccc([N+](=O)[O-])c(P(=O)(O)O)c1 |  | > 100 µM |  | > 100 µM |  | > 100 µM |  | > 100 µM |  | > 100 µM |  |  |  | > 100 µM |  | > 100 µM
COc1ccc(C2=C(Br)C(=O)OC2)cc1Cl | 27.9 µM | > 80.7 µM | 45.2 µM | > 100 µM | 33.7 µM | > 86.2 µM | 18.9 µM | 46.5 µM | 61.4 µM | > 100 µM | 32.9 µM | 99.6 µM | > 91.2 µM | > 100 µM | 22.1 µM | 52.3 µM
CN(C)c1cc2c(cc1Sc1nc3c(N)nccc3n1CCNCC(C)(C)C)OCO2 | 1.46 µM | 10.1 µM | 0.334 µM | 2.49 µM | 0.319 µM | 11 µM | 0.417 µM | 4.41 µM | 6.17 µM | 46.2 µM | 1.08 µM | 22.4 µM | 1.05 µM | 16.9 µM | 0.507 µM | 25 µM
NC(=O)c1cccc(N)c1 | > 100 µM | > 100 µM | > 100 µM | > 100 µM | > 100 µM | > 100 µM | > 100 µM | > 100 µM | > 100 µM | > 100 µM | > 100 µM | > 100 µM | > 100 µM | > 100 µM | > 100 µM | > 100 µM
CCN1CCN(CCNc2nccc(-c3c(-c4cccc(O)c4)nc4sccn34)n2)S1(=O)=O | 16.6 µM and 3.97 µM | 32.5 µM and 25.6 µM | 6.2 µM and 0.671 µM | 32.5 µM and 69.9 µM | 11.9 µM and 11.4 µM | 32.5 µM and > 100 µM | 4.96 µM and 2.53 µM | 25.7 µM and 23.5 µM | 19.5 µM and 12.1 µM | 32.5 µM and > 100 µM | 23.4 µM and 19.9 µM | 32.5 µM and > 100 µM | 2.05 µM and 2.6 µM | 10.4 µM and 7.27 µM | 15.2 µM and 7.73 µM | 32.5 µM and > 100 µM
CCN(CC)CCC(CNc1c2ccc([N+](=O)[O-])cc2nc2cc(OC)c(OC)cc12)c1ccccc1 (stereo unspecified) | 1.69 µM and 1.19 µM | 3.12 µM and 2.52 µM | 0.258 µM and 0.0809 µM | 0.85 µM and 0.404 µM | 0.142 µM and 0.146 µM | 1.25 µM and 3.85 µM | 0.568 µM and 0.527 µM | 1.86 µM | 0.271 µM and 0.228 µM | 1.03 µM and 0.863 µM | 0.238 µM and 0.109 µM | 1.29 µM and 0.573 µM | 0.229 µM and 0.0816 µM | 0.609 µM and 0.253 µM | 0.229 µM and 0.218 µM | 1.22 µM and 1.49 µM
O=[N+]([O-])c1ccc(Oc2cccnc2)c([N+](=O)[O-])c1 | 18.7 µM | 43.1 µM | 2.29 µM | 13 µM | 3.22 µM | > 100 µM | 3.16 µM | 13.3 µM | 6.4 µM | > 100 µM | 4.2 µM | 36.4 µM | 3.97 µM | 14.8 µM | 4.3 µM | 23.2 µM
S=c1cn[nH]c2ccc(Br)cc12 |  | > 100 µM |  | > 100 µM |  | > 100 µM |  | > 100 µM |  | > 100 µM |  | > 100 µM |  | 71.3 µM |  | > 100 µM
NC(Cc1cc(Br)c(O)c(Br)c1)C(=O)O (stereo unspecified) |  | > 100 µM |  | > 100 µM |  | > 100 µM |  | > 100 µM |  | > 100 µM |  | > 100 µM |  | > 100 µM |  | > 100 µM
Cc1nc(NC(=O)COc2cccc(/C=C3\COc4ccccc4C3=O)c2)sc1C | 12.6 µM | 25.2 µM | 1.69 µM | 3.83 µM | 3.1 µM | > 100 µM | 1.01 µM | 2.55 µM | 4.02 µM | 13.9 µM | 1.85 µM | 3.5 µM | 1.62 µM | 3.17 µM | 2.01 µM | 4.63 µM
CCCCN(CCCC)c1cc(C(=O)CCCCCN)c2ccccc2n1 | 2.85 µM | 19.2 µM | 2.51 µM | 6.32 µM | 2.47 µM | 5 µM | 1.69 µM | 3.13 µM |  |  | 3.38 µM | 12.7 µM | 2.56 µM | 4.45 µM | 1.63 µM | 3.07 µM
